# Tests used:
# [1] = compound: CCCCOc1c(C(=O)c2c(F)cc(C)cc2F)c[nH]c2nncc1-2
# Luminespib/NVP-AUY922 = compound: CCNC(=O)c1noc(-c2cc(C(C)C)c(O)cc2O)c1-c1ccc(CN2CCOCC2)cc1 [Luminespib/NVP-AUY922]
# THZ-P1-2 = compound: CN(C)C/C=C/C(=O)NC1=CC=C(C=C1)C(=O)NC2=CC=CC(=C2)NC3=NC=NC(=C3)C4=CNC5=CC=CC=C54 [THZ-P1-2]
# BSJ-01-175 = compound: CN(C)C/C=C/C(=O)Nc1ccc(O[C@@H]2CCC[C@@H](Nc3ncc(Cl)c(-c4c[nH]c5ccccc45)n3)C2)cc1 [BSJ-01-175]
# Saracatinib/AZD0530 = compound: CN1CCN(CCOc2cc(OC3CCOCC3)c3c(Nc4c(Cl)ccc5c4OCO5)ncnc3c2)CC1 [Saracatinib/AZD0530]
# Ceritinib/LDK378 = compound: Cc1cc(Nc2ncc(Cl)c(Nc3ccccc3S(=O)(=O)C(C)C)n2)c(OC(C)C)cc1C1CCNCC1 [Ceritinib/LDK378]
# YKL-5-124 = compound: C=CC(=O)Nc1ccc(C(=O)Nc2[nH]nc3c2CN(C(=O)N[C@H](CN(C)C)c2ccccc2)C3(C)C)cc1 [YKL-5-124]; experiment: increase in dead-cell fraction, 72 h; higher = more death;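 also: breast cancer cell lines in 384-well plates, stained with Hoechst plus LIVE/DEAD far red dye and imaged, cells above an LDR intensity threshold counted dead, Hoechst-negative corpses included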
# BSJ-03-123 = compound: CC(=O)c1c(C)c2cnc(Nc3ccc(N4CCN(CCOCCOCCOCCNC(=O)COc5cccc6c5C(=O)N(C5CCC(=O)NC5=O)C6=O)CC4)cn3)nc2n(C2CCCC2)c1=O [BSJ-03-123]; experiment: as above
# [2] = compound: CC(=O)c1c(C)c2cnc(Nc3ccc(N4CCNCC4)cn3)nc2n(C2CCCC2)c1=O; experiment: as above
# [3] = compound: CCN1CCN(Cc2ccc(Nc3ncc(F)c(-c4cc(F)c5nc(C)n(C(C)C)c5c4)n3)nc2)CC1; experiment: as above
# Neratinib/HKI272 = compound: CCOc1cc2ncc(C#N)c(Nc3ccc(OCc4ccccn4)c(Cl)c3)c2cc1NC(=O)/C=C/CN(C)C [Neratinib/HKI272]; experiment: as above
# [4] = compound: CCc1cnn2c(NCc3ccc[n+]([O-])c3)cc(N3CCCC[C@H]3CCO)nc12; experiment: as above
# LEE011/Ribociclib = compound: CN(C)C(=O)c1cc2cnc(Nc3ccc(N4CCNCC4)cn3)nc2n1C1CCCC1 [LEE011/Ribociclib]; experiment: as above
# THZ531 = compound: CN(C)C/C=C/C(=O)Nc1ccc(C(=O)N2CCC[C@@H](Nc3ncc(Cl)c(-c4c[nH]c5ccccc45)n3)C2)cc1 [THZ531]; experiment: as above
# THZ1 = compound: CN(C)C/C=C/C(=O)Nc1ccc(C(=O)Nc2cccc(Nc3ncc(Cl)c(-c4c[nH]c5ccccc45)n3)c2)cc1 [THZ1]; experiment: as above
# Flavopiridol = compound: CN1CC[C@H](c2c(O)cc(O)c3c(=O)cc(-c4ccccc4Cl)oc23)[C@H](O)C1 [Flavopiridol]; experiment: as above
# 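For GR50, 72 h in this document: breast cancer and non-malignant breast epithelial cell lines, Deep Dye Drop or Dye Drop imaging, nine half-log doses, GR normalized to time-zero plates and DMSO-only controls.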
cell line,measurement,setting,value
MCF7,"GR50, 72 h",[1],0.00767 µM
same,"GR50, 72 h",Luminespib/NVP-AUY922,0.00871 µM
same,"GR50, 72 h",THZ-P1-2,3.65 µM
same,"GR50, 72 h",BSJ-01-175,0.006 µM
same,"GR50, 72 h",Saracatinib/AZD0530,0.577 µM
same,"GR50, 72 h",Ceritinib/LDK378,0.344 µM
same,increase in dead-cell fraction,YKL-5-124; 0.001 µM,0.0137
same,increase in dead-cell fraction,YKL-5-124; 0.003162 µM,0.0144
same,increase in dead-cell fraction,YKL-5-124; 0.01 µM,0.0219
same,increase in dead-cell fraction,YKL-5-124; 0.03162 µM,0.0284
same,increase in dead-cell fraction,YKL-5-124; 0.1 µM,0.0263
same,increase in dead-cell fraction,YKL-5-124; 0.3162 µM,0.0411
same,increase in dead-cell fraction,YKL-5-124; 1 µM,0.0356
same,increase in dead-cell fraction,YKL-5-124; 3.162 µM,0.039
same,increase in dead-cell fraction,YKL-5-124; 10 µM,0.203
same,increase in dead-cell fraction,BSJ-03-123; 0.001 µM,0.0009
same,increase in dead-cell fraction,BSJ-03-123; 0.003162 µM,0.0021
same,increase in dead-cell fraction,BSJ-03-123; 0.01 µM,0.0018
same,increase in dead-cell fraction,BSJ-03-123; 0.03162 µM,0.0017
same,increase in dead-cell fraction,BSJ-03-123; 0.1 µM,0.0038
same,increase in dead-cell fraction,BSJ-03-123; 0.3162 µM,0.0034
same,increase in dead-cell fraction,BSJ-03-123; 1 µM,0.008
same,increase in dead-cell fraction,BSJ-03-123; 3.162 µM,0.0042
same,increase in dead-cell fraction,BSJ-03-123; 10 µM,0.274
same,increase in dead-cell fraction,[2]; 0.0003162 µM,-0.0006
same,increase in dead-cell fraction,[2]; 0.001 µM,-0.0004
same,increase in dead-cell fraction,[2]; 0.003162 µM,0.002
same,increase in dead-cell fraction,[2]; 0.01 µM,0.0051
same,increase in dead-cell fraction,[2]; 0.03162 µM,0.0099
same,increase in dead-cell fraction,[2]; 0.1 µM,0.0195
same,increase in dead-cell fraction,[2]; 0.3162 µM,0.022
same,increase in dead-cell fraction,[2]; 1 µM,0.0362
same,increase in dead-cell fraction,[2]; 3.162 µM,0.0308
same,increase in dead-cell fraction,[3]; 0.001 µM,0.0009
same,increase in dead-cell fraction,[3]; 0.003162 µM,0.0022
same,increase in dead-cell fraction,[3]; 0.01 µM,0.0141
same,increase in dead-cell fraction,[3]; 0.03162 µM,0.0241
same,increase in dead-cell fraction,[3]; 0.1 µM,0.0305
same,increase in dead-cell fraction,[3]; 0.3162 µM,0.0363
same,increase in dead-cell fraction,[3]; 1 µM,0.0543
same,increase in dead-cell fraction,[3]; 3.162 µM,0.277
same,increase in dead-cell fraction,[3]; 10 µM,0.373
same,increase in dead-cell fraction,Neratinib/HKI272; 0.0003162 µM,0
same,increase in dead-cell fraction,Neratinib/HKI272; 0.001 µM,0.0036
same,increase in dead-cell fraction,Neratinib/HKI272; 0.003162 µM,0.0018
same,increase in dead-cell fraction,Neratinib/HKI272; 0.01 µM,0.0034
same,increase in dead-cell fraction,Neratinib/HKI272; 0.03162 µM,0.0035
same,increase in dead-cell fraction,Neratinib/HKI272; 0.1 µM,0.0017
same,increase in dead-cell fraction,Neratinib/HKI272; 0.3162 µM,0.0089
same,increase in dead-cell fraction,Neratinib/HKI272; 1 µM,0.0125
same,increase in dead-cell fraction,Neratinib/HKI272; 3.162 µM,0.164
same,increase in dead-cell fraction,[4]; 0.0001 µM,0.0003
same,increase in dead-cell fraction,[4]; 0.0003162 µM,-0.0006
same,increase in dead-cell fraction,[4]; 0.001 µM,-0.0004
same,increase in dead-cell fraction,[4]; 0.003162 µM,0.0012
same,increase in dead-cell fraction,[4]; 0.01 µM,0.0757
same,increase in dead-cell fraction,[4]; 0.03162 µM,0.319
same,increase in dead-cell fraction,[4]; 0.1 µM,0.272
same,increase in dead-cell fraction,[4]; 0.3162 µM,0.225
same,increase in dead-cell fraction,[4]; 1 µM,0.229
same,increase in dead-cell fraction,LEE011/Ribociclib; 0.001 µM,0.0006
same,increase in dead-cell fraction,LEE011/Ribociclib; 0.003162 µM,0.0004
same,increase in dead-cell fraction,LEE011/Ribociclib; 0.01 µM,0.0034
same,increase in dead-cell fraction,LEE011/Ribociclib; 0.03162 µM,0.0049
same,increase in dead-cell fraction,LEE011/Ribociclib; 0.1 µM,0.0006
same,increase in dead-cell fraction,LEE011/Ribociclib; 0.3162 µM,0.0139
same,increase in dead-cell fraction,LEE011/Ribociclib; 1 µM,0.0076
same,increase in dead-cell fraction,LEE011/Ribociclib; 3.162 µM,0.0151
same,increase in dead-cell fraction,LEE011/Ribociclib; 10 µM,0.0147
same,increase in dead-cell fraction,THZ531; 0.0001 µM,0.0003
same,increase in dead-cell fraction,THZ531; 0.0003162 µM,-0.0011
same,increase in dead-cell fraction,THZ531; 0.001 µM,0.0038
same,increase in dead-cell fraction,THZ531; 0.003162 µM,-0.0013
same,increase in dead-cell fraction,THZ531; 0.01 µM,0.0059
same,increase in dead-cell fraction,THZ531; 0.03162 µM,0.0084
same,increase in dead-cell fraction,THZ531; 0.1 µM,0.125
same,increase in dead-cell fraction,THZ531; 0.3162 µM,0.185
same,increase in dead-cell fraction,THZ531; 1 µM,0.355
same,increase in dead-cell fraction,THZ1; 0.0001 µM,-0.0005
same,increase in dead-cell fraction,THZ1; 0.0003162 µM,0.0028
same,increase in dead-cell fraction,THZ1; 0.001 µM,0.0017
same,increase in dead-cell fraction,THZ1; 0.003162 µM,0.0005
same,increase in dead-cell fraction,THZ1; 0.01 µM,0.0078
same,increase in dead-cell fraction,THZ1; 0.03162 µM,0.0606
same,increase in dead-cell fraction,THZ1; 0.1 µM,0.196
same,increase in dead-cell fraction,THZ1; 0.3162 µM,0.176
same,increase in dead-cell fraction,THZ1; 1 µM,0.338
same,increase in dead-cell fraction,Flavopiridol; 0.0001 µM,-0.0023
same,increase in dead-cell fraction,Flavopiridol; 0.0003162 µM,0.0009
same,increase in dead-cell fraction,Flavopiridol; 0.001 µM,0.0003
same,increase in dead-cell fraction,Flavopiridol; 0.003162 µM,0.0007
same,increase in dead-cell fraction,Flavopiridol; 0.01 µM,0.0049
same,increase in dead-cell fraction,Flavopiridol; 0.03162 µM,0.0017
same,increase in dead-cell fraction,Flavopiridol; 0.1 µM,0.0144
same,increase in dead-cell fraction,Flavopiridol; 0.3162 µM,0.257
same,increase in dead-cell fraction,Flavopiridol; 1 µM,0.183
